The numbers were not newly measured in patent publication US11382927B2, “Liquid medicinal preparation” (FUJIFILM Corporation, priority 2016, dated 2022), which cites them from elsewhere.

The test system of the series is tumor. Particulars: oral administration to mice.

On to `Nc1ccn([C@@H]2S[C@H](CO)[C@@H](O)[C@@H]2F)c(=O)n1` [Compound A, 1-(2-deoxy-2-fluoro-4-thio-β-D-arabinofuranosyl)cytosine], for which the Antitumor activity result is “strong antitumor activity”.
